The record followed here is patent US10947196B2, “Beta adrenergic agonist and methods of using the same” (CURASEN THERAPEUTICS, INC., priority 2019, dated 2021).

Molecules are shown by their SMILES.

Data set [1] can be described thus: Hepatocyte stability (rat). The format is in vitro ADME. The note with it: 0.5×10^6 viable cells/mL. On the procedure: 10 mM and 100 μM stock solutions of test compound(s) and a positive control were prepared in appropriate solvent (DMSO). In separate conical tubes, the 10 mM test compound and the positive control were diluted to 100 μM by combining 198 μL of 50% acetonitrile/50% water and 2 μL of 10 mM stock. The 100 μM test compound and the positive control were diluted to 30 μM by combining 140 μL of 50% acetonitrile/50% water and 60 μL of 100 μM stock solution. The 100 μM test compound and the positive control were diluted to 10 μM by combining 180 μL of 50% acetonitrile/50% water and 20 μL of 100 μM stock solution. The 100 μM test compound and the positive control were diluted to 3 μM by combining 194 μL of 50% acetonitrile/50% water and 6 μL of 100 μM stock solution.
Incubation medium (William's E Medium supplemented with GlutaMAX) and hepatocyte thawing medium was placed in a 37° C. water bath, and allowed to warm for at least 15 minutes prior to use. A vial of cryopreserved hepatocytes from storage was then removed, ensuring that the vial remains at cryogenic temperatures until thawing process ensues. Cells were thawed by placing the vial in a 37° C. water bath and gently shaking the vial for 2 minutes. After thawing was completed, the vial was sprayed with 70% ethanol and transferred to a biosafety cabinet.
A wide-bore pipette tip was used to transfer hepatocytes into 50 mL conical tube containing thawing medium. The 50 mL conical tube was placed into a centrifuge and spun at 100 g for 10 minutes. Upon completion of spin, the thawing medium was aspirated and the hepatocytes were resuspended in enough incubation medium to yield ˜1.5×10^6 cells/mL.
Using AOPI staining solution, cells were counted and the viable cell density was determined. Cells with poor viability (<75% viability) are not acceptable for use. […]
All calculations were carried out using Microsoft Excel. Peak areas were determined from extracted ion chromatograms. […]
The in vitro half-life (in vitro t1/2) was determined from the slope value: in vitro t1/2=0.693/k

Data set [2] is described as follows: Plasma protein binding, equilibrium dialysis (rat). The data set is classed as in vitro ADME. To be noted: pH 7.4, equilibrium dialysis 6 hours, read-out: PPB (rat), percent of unbound fraction. On the procedure:
Preparation of 100 mM sodium phosphate and 150 mM NaCl buffer (PBS). A basic solution was prepared by dissolving 14.2 g/L Na2HPO4 and 8.77 g/L NaCl in deionized water and the solution could be stored at 4° C. for up to 7 days. An acidic solution was prepared by dissolving 12.0 g/L NaH2PO4 and 8.77 g/L NaCl in deionized water and the solution could be stored at 4° C. for up to 7 days. The basic solution was titrated with the acidic solution to pH 7.4 and store at 4° C. for up to 7 days. pH was checked on the day of experiment and was adjusted if outside specification of 7.4±0.1.
Thawing of the frozen plasma (stored at −80° C.). Frozen plasma was thawed immediately at room temperature. The plasma was centrifuged at 3,220 g for 10 minutes to remove clots and supernatant was collected into a fresh tube. The pH of the plasma was checked and recorded. Note: a). Only use plasma that has been thawed no more than twice since arrival. b). Only use plasma within the range of pH 7 to pH 8.
Preparation of working solutions. The working solutions of test compound and control compound ketoconazole were prepared in DMSO at the concentration of 200 μM. And then 3 μL of working solutions was removed to mix with 597 μL of rat plasma to achieve a final concentration of 1 μM (0.5% DMSO). Plasma samples were vortexed thoroughly.
Preparation of dialysis membranes. The dialysis membranes were soaked in ultrapure water for 60 minutes to separate strips, then in 20% ethanol for 20 minutes, finally in dialysis buffer for 20 minutes.
Procedure for equilibrium dialysis. The dialysis apparatus was assembled according to the manufacturer's instruction. Each Cell was filled with 120 μL of spiked plasma sample and dialyzed against equal volume of dialysis buffer (PBS). The assay was performed in duplicate. The dialysis plate was sealed and incubated in an incubator at 37° C. with 5% CO2 at 100 rpm for 6 hours. At the end of incubation, seal was removed and 50 μL of samples from both buffer and plasma chambers were transferred to wells of a 96-well plate.
Procedure for sample preparation. […]

In the case of `CC(C)(C)NC[C@H](O)c1cccc(C(F)(F)F)n1` [Compound 03-3], the “Hepatocyte stability, Rat” value in data set [1] was determined as 4.59 μL/min/10^6 cells. For the same compound, in data set [2], the fraction unbound at 6 h, 1 μM was 0.9.
For `CC(C)(C)NC[C@H](O)c1cccc(C#N)n1` [Compound 03-5, (S)-6-(2-(tert-butylamino)-1-hydroxyethyl)picolinonitrile] the same measures were 3.54-4.62 μL/min/10^6 cells and 1.
Take `Cc1ncccc1[C@@H](O)CNC(C)(C)C` [Compound 03-115]: the “Hepatocyte stability, Rat” value in data set [1] amounted to 20.61 μL/min/10^6 cells. Also, the fraction unbound at 6 h, 1 μM in data set [2] came to 0.97.
